Measured values: patent US10059694B2, “2-aminopyrimidine compound and pharmaceutical composition and use thereof” (Shanghai Institute of Materia Medica, Chinese Academy of …, priority 2014, dated 2018)

Columns and labels:
IGF-1R = molecular target: T1, IGF-1R (Homo sapiens, UniProt P08069); test: kinase inhibitory activity test (ELISA), IGF-1R; format: biochemical; settings: ATP 5 μM, 1 hour at 37° C.
T1 construct: purchased Millipore
Summary of the method: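 Poly(Glu,Tyr)4:1-coated plates; kinase reacted 1 h at 37 °C with 5 μM ATP (final) in HEPES pH 7.4 buffer with Mg2+/Mn2+. Phosphotyrosine detected by PY99 and HRP anti-mouse IgG with OPD at 490 nm; IC50 from four-parameter fit.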

[1] = test system: human non-small cell lung cancer NCI-H1975 cell line; test: SRB proliferation assay, NCI-H1975 cells; format: cell-based; settings: NCI-H1975, SRB, 72 h, read-out: IC50 NCI-H1975
Summary of the method: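 NCI-H1975 cells in log phase were allowed to adhere for 24 h, then treated with compound in triplicate for 72 h. Cells were TCA-fixed and SRB-stained, with OD read at 515 nm; IC50 derived from growth inhibition versus DMSO control.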

[2] = test system: phosphorylation of EGFR^T790M/L858R, AKT and ERK in NCI-H1975 cells; test: Western blot, EGFR phosphorylation and downstream signaling in NCI-H1975 cells; format: cell-based, human; settings: FIG. 1
Experimental: (§1) The tests were performed using conventional Western Blot (immunoblotting test), as follows. A certain number of A431 cells and NCI-H1975 cells in the logarithmic growth phase were inoculated on 6-well plate and adherent cultured overnight in the incubator. Replaced with serum-free medium and starved for 24 h, a certain concentration of compound was added and reacted for 2 h. 50 ng/mL of EGF stimulating factor was added and reacted for 10 min. The cells were lysed with lysate and samples were collected, and then the samples were taken for SDS-PAGE electrophoresis. After electrophoresis, the protein was transferred to a nitrocellulose membrane by a semi-dry transfer system. The nitrocellulose membrane was placed in a blocking solution (5% skimmed milk diluted with TBS containing 0.1% Tween 20) for 2 h at room temperature, and then incubated overnight at 4° C. in a primary antibody solution (diluted with TBS containing 0.1% Tween 20 by 1:500). It was washed for three times with TBS containing 0.1% Tween 20 for 15 min each time. The membrane was placed in a secondary antibody solution (horseradish peroxidase labeled goat anti-rabbit IgG, diluted with TBS containing 0.1% Tween 20 by 1:2000) and reacted for 1 h at room temperature. After washed for three times as above, the membrane was dyed with ECL plus reagent and photoed using image Quant LAS 4000 camera.

[3] = test system: phosphorylation of EGFR^wt in A431 cells; test: Western blot, EGFR phosphorylation in A431 cells; format: cell-based, human; settings: FIG. 2
Experimental: as §1

[4] = test system: human lung cancer NCI-H1975 nude mice subcutaneous xenografts; test: NCI-H1975 nude mice subcutaneous xenograft; format: in vivo
Experimental: The tumor tissue in the growth stage was taken and cut into small pieces of about 1.5 mm^3, which were inoculated subcutaneously in nude mice under aseptic conditions. When the tumor was grown to about 100 mm^3, nude mice were random allocated. […] The mice were gavage administered once a day for 11 days, and the solvent control group (injection water containing 1% Tween 80) was set. During the whole experiment, the diameter of the transplanted tumor was measured twice a week with a vernier caliper and the weights of the mice were weighed. The volume of tumor was calculated as follows: TV=½×a×b^2 (Where a,b respectively represent long and wide)

T1 sequence (P08069 31-1367): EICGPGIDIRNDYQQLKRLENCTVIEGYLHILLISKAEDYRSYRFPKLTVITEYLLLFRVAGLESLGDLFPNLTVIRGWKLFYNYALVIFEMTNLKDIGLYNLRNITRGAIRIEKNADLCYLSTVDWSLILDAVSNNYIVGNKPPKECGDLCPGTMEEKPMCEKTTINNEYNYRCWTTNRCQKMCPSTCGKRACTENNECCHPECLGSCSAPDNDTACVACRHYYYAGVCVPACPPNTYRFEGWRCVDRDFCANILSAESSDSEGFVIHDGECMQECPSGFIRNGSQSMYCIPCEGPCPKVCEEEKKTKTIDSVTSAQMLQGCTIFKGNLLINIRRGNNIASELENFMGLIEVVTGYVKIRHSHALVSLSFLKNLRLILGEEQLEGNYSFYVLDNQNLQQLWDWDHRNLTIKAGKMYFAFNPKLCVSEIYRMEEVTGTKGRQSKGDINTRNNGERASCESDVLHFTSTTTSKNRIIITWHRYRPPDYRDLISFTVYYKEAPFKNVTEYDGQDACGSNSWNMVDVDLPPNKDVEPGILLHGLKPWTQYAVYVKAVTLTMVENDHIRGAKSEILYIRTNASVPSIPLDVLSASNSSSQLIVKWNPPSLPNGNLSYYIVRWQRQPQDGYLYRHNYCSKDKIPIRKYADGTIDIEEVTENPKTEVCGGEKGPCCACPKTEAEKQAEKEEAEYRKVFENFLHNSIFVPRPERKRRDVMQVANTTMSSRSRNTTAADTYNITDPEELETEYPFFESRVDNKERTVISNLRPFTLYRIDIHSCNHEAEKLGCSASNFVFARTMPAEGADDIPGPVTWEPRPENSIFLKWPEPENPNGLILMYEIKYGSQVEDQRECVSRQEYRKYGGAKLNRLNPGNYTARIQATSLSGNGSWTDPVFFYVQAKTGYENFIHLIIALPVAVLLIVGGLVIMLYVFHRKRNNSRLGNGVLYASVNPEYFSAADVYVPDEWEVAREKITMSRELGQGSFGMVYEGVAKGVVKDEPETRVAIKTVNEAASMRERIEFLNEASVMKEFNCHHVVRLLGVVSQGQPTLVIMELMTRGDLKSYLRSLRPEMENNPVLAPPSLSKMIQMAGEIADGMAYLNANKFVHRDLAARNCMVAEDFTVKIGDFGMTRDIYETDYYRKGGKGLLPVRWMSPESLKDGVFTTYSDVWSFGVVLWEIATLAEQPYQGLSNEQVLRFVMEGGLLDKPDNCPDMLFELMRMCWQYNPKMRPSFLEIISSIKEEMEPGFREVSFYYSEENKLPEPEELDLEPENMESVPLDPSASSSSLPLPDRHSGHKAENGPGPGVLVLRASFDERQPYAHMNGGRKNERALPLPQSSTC

- IC50 (IGF-1R): 31.9 nM
- IC50 [1]: 1 to 56 nM
SMILES: C=CC(=O)Nc1cc(Nc2ncc(Cl)c(Nc3ccc4ccccc4c3)n2)c(OC)cc1N(C)CCN(C)C [CCB120067, N-((5-((5-chloro-4-((naphthalen-2-yl)amino))pyrimidin-2-yl)amino)-2-((N-methyl-N-dimethylaminoethyl)amino)-4-methoxyphenyl)acrylamide]
- inhibition of phosphorylation of EGFR^T790M/L858R and activation of AKT and ERK ([2]; 2 h compound, EGF 50 ng/mL 10 min): significantly inhibit
- inhibitory activity on phosphorylated EGFR^T790M/L858R, Akt and Erk compared with CO1686 ([2]; CCB120067 at 1 nM): comparable or slightly better than that of CO1686 at 100 nM concentration
- inhibitory activity on phosphorylation of EGFR^wt [3]: weaker
- inhibition of tumor growth ([4]; 10 mg/kg gavage once a day for 11 days, FIG. 3): significantly inhibit
- tumor regression ([4]; 10 mg/kg gavage, after 7 days of administration): completely subsided
- inhibitory activity on tumor growth compared with positive control ([4]; CCB120067 10 mg/kg versus CO1686 100 mg/kg): stronger than anti-tumor effect of CO1686 at 100 mg/kg dose
